Here are results for 12 compounds from ChEMBL document CHEMBL5325437, “Shifting the selectivity of pyrido[2,3-d]pyrimidin-7(8H)-one inhibitors towards the salt-inducible kinase (SIK) subfamily” (Eur J Med Chem, 2023).

Series [1] concerns the target T1, Serine/threonine-protein kinase 4 (Homo sapiens) (UniProt Q13043).
T1 sequence (whole entry): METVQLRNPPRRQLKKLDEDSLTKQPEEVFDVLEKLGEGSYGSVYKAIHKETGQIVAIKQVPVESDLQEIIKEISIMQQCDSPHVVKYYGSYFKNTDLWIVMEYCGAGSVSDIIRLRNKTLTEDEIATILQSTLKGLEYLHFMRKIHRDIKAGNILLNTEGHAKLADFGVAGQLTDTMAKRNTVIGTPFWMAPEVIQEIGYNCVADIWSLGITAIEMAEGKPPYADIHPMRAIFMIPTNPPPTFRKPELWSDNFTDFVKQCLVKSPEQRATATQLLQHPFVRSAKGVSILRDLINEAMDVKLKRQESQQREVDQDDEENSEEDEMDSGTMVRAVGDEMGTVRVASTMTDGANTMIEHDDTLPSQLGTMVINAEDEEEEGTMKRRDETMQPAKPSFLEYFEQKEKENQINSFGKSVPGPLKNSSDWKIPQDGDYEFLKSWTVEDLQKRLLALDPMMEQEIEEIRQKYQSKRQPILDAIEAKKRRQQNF
Briefly: Binding affinity to recombinant MST1 (unknown origin) assessed as stabilization by measuring change in melting temperature at 10 uM by SYPRO orange dye based differential scanning fluorimetry assay. For orientation: DSF heats the sample and reads unfolding from a dye or from intrinsic fluorescence.

Series [2] addresses T2, Serine/threonine-protein kinase 3 (Homo sapiens) (UniProt Q13188).
T2 sequence (whole entry): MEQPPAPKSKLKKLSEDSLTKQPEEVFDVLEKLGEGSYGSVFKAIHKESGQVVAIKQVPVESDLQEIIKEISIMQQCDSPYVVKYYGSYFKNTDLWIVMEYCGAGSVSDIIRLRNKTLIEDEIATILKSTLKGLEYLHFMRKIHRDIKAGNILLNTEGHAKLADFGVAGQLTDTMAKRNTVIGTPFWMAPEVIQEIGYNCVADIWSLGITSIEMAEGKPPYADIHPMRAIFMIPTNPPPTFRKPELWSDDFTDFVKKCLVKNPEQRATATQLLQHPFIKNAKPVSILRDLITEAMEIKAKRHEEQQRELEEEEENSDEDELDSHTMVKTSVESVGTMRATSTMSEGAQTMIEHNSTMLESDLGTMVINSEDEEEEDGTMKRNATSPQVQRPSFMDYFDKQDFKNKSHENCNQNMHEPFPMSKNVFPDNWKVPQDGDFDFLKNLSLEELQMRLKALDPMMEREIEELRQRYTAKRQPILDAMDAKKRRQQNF
The series is described as follows: Binding affinity to recombinant MST2 (unknown origin) assessed as stabilization by measuring change in melting temperature at 10 uM by SYPRO orange dye based differential scanning fluorimetry assay.

The target in series [3] is Serine/threonine-protein kinase 24 (Homo sapiens) (UniProt Q9Y6E0). The series is described as follows: Binding affinity to recombinant MST3 (unknown origin) assessed as stabilization by measuring change in melting temperature at 10 uM by SYPRO orange dye based differential scanning fluorimetry assay.
The target of series [4] is Serine/threonine-protein kinase 26 (Homo sapiens) (UniProt Q9P289). The series is described as follows: Binding affinity to recombinant MST4 (unknown origin) assessed as stabilization by measuring change in melting temperature at 10 uM by SYPRO orange dye based differential scanning fluorimetry assay.
The target in series [5] is Serine/threonine-protein kinase PAK 1 (Homo sapiens) (UniProt Q13153). The series is described as follows: Binding affinity to recombinant PAK1 (unknown origin) assessed as stabilization by measuring change in melting temperature at 10 uM by SYPRO orange dye based differential scanning fluorimetry assay.
The target in series [6] is Serine/threonine-protein kinase SIK2 (Homo sapiens) (UniProt Q9H0K1). The series is described as follows: Inhibition of recombinant human GST-tagged SIK2 assessed as downregulation of SIK2 phosphorylation at Ser358 incubated for 30 mins by Western blotting analysis.
Series [7] has the same target. Briefly: Inhibition of recombinant human GST-tagged SIK2 assessed as downregulation of SIK2 phosphorylation at Ser358 a 5 uM incubated for 30 mins by Western blotting analysis. Background: A western blot detects proteins with antibodies after separation by electrophoresis.
Series [8] has the same target. The series is described as follows: Inhibition of SIK2 in human SK-OV-3 cells assessed as decrease in centrosome dissociation in G2 phase at 5 uM incubated for 48 hrs by immunofluorescence assay. The format is cell-based.
Series [9] deals with SK-OV-3. The series is described as follows: Induction of cell cycle arrest in human SK-OV-3 cells assessed as accumulation of cells at G1 phase at 5 uM incubated for 24 hrs by flow cytometry (reference value: 34%). The format is functional. For orientation: Flow cytometry measures light scatter and fluorescence of single cells or particles in a stream.
Series [10] deals with SK-OV-3. Briefly: Induction of cell cycle arrest in human SK-OV-3 cells assessed as accumulation of cells at G2 phase at 5 uM incubated for 24 hrs by flow cytometry (reference value: 24%). Format: functional.
Series [11] relates to SK-OV-3. The series is described as follows: Induction of cell cycle arrest in human SK-OV-3 cells assessed as accumulation of cells at S phase at 5 uM incubated for 24 hrs by flow cytometry (reference value: 32%). Format: functional.
In series [12] the target is Serine/threonine-protein kinase SIK2 (Homo sapiens) (UniProt Q9H0K1). Briefly: Inhibition of SIK2 in human SK-OV-3 cells assessed as downregulation of AKT phosphorylation at Ser473 at 5 uM incubated for 48 hrs by Western blotting analysis. Format: cell-based.
The subject of series [13] is HCT-116. Briefly: Cytotoxicity against human HCT-116 cells assessed as effect on cell viability at 1 uM incubated for 80 hrs by Hoechst-33342 staining high-content imaging analysis. The format is toxicity, cell-based. Particulars: hct-116, 80 h.
The subject of series [14] is HCT-116. Briefly: Cytotoxicity against human HCT-116 cells assessed as decrease in cell viability at 10 uM incubated for 24 hrs by Hoechst-33342 staining high-content imaging analysis. Format: toxicity, cell-based. Particulars: hct-116, 24 h.
Series [15] deals with HCT-116. Briefly: Cytotoxicity against human HCT-116 cells assessed as reduction in cell count at 1 uM incubated for >60 hrs by Hoechst-33342 staining high-content imaging analysis. Format: toxicity, cell-based. The settings on record: hct-116, 60 h.
In series [16] the target is Serine/threonine-protein kinase SIK1 (Homo sapiens, UniProt P57059). The series is described as follows: Inhibition of full length NanoLuc fused SIK1 (unknown origin) transfected in HEK293T cells using NanoBRET NanoGlo substrate incubated for 2 hrs in presence of tracer by NanoBRET assay. Format: cell-based.
Series [17] deals with Mitogen-activated protein kinase kinase kinase 20 (Homo sapiens, UniProt Q9NYL2). Briefly: Inhibition of full-length human ZAK using MBP as substrate in presence off ATP by competitive binding assay.

Each structure is given as a SMILES string. Activity calls are given as the source filed them. No cut-off for these calls is given here.

Sequence of Serine/threonine-protein kinase PAK 1 (Homo sapiens) (Q13153 whole entry): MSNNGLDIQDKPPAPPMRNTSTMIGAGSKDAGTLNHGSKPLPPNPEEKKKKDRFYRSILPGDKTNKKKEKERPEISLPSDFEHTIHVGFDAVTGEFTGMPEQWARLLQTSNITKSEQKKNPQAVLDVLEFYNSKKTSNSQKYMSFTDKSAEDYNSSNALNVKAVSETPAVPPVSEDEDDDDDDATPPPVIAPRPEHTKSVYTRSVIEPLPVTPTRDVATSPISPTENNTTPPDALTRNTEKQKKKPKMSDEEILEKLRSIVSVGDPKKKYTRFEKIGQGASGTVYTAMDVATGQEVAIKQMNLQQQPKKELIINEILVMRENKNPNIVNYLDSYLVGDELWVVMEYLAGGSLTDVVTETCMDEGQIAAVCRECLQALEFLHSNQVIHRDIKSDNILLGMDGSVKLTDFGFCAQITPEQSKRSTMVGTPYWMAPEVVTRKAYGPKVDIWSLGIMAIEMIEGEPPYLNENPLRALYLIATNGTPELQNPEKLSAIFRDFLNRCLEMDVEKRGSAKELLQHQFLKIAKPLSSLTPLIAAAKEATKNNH
Sequence of Serine/threonine-protein kinase 24 (Homo sapiens) (Q9Y6E0 whole entry, looked up): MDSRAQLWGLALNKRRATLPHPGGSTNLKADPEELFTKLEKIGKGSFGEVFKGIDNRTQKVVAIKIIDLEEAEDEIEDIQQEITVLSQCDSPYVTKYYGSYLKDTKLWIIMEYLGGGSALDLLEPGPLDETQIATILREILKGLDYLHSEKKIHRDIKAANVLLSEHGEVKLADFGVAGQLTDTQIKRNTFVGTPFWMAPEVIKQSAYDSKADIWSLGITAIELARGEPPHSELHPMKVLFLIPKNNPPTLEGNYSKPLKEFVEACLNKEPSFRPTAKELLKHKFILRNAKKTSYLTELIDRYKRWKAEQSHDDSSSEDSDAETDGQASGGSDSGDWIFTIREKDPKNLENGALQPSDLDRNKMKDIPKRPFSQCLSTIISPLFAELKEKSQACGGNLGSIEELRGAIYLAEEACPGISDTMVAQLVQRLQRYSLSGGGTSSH
Sequence of Serine/threonine-protein kinase SIK2 (Homo sapiens) (Q9H0K1 whole entry, looked up): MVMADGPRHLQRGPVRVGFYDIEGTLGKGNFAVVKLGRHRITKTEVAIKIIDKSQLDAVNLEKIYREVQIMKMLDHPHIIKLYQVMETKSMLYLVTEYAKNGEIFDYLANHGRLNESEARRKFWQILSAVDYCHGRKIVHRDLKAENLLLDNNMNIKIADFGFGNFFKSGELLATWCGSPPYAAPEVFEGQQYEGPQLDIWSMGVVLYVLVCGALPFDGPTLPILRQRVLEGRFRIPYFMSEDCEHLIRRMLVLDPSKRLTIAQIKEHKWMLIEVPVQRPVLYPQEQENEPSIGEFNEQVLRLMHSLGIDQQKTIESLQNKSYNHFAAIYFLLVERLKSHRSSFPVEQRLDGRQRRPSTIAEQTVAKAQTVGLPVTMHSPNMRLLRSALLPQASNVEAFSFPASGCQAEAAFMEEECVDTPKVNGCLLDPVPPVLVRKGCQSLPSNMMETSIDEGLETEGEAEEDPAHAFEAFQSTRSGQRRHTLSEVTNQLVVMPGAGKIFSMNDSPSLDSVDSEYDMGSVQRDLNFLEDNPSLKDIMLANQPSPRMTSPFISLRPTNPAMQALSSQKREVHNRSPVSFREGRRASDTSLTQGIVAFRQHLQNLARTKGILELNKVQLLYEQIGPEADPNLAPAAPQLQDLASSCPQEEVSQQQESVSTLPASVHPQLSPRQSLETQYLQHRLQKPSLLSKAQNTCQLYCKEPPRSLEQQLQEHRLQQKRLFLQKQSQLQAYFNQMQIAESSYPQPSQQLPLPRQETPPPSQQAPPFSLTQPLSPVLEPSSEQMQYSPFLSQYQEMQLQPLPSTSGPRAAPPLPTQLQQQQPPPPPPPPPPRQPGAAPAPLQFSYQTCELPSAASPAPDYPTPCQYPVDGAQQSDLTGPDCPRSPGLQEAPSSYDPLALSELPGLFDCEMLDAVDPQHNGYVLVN
Sequence of Serine/threonine-protein kinase 26 (Homo sapiens) (Q9P289 2-416 limits assumed): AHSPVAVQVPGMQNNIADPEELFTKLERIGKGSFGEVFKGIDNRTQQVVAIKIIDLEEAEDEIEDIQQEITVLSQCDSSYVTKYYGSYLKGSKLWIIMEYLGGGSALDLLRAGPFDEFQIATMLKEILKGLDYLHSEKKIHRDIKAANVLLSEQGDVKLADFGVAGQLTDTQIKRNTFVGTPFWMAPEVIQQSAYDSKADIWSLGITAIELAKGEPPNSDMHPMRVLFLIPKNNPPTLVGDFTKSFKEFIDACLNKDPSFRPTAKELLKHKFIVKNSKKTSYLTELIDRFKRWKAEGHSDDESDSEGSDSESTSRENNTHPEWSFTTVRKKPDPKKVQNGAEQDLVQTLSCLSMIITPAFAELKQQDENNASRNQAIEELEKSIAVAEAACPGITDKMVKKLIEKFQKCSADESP
Sequence of Mitogen-activated protein kinase kinase kinase 20 (Q9NYL2 whole entry): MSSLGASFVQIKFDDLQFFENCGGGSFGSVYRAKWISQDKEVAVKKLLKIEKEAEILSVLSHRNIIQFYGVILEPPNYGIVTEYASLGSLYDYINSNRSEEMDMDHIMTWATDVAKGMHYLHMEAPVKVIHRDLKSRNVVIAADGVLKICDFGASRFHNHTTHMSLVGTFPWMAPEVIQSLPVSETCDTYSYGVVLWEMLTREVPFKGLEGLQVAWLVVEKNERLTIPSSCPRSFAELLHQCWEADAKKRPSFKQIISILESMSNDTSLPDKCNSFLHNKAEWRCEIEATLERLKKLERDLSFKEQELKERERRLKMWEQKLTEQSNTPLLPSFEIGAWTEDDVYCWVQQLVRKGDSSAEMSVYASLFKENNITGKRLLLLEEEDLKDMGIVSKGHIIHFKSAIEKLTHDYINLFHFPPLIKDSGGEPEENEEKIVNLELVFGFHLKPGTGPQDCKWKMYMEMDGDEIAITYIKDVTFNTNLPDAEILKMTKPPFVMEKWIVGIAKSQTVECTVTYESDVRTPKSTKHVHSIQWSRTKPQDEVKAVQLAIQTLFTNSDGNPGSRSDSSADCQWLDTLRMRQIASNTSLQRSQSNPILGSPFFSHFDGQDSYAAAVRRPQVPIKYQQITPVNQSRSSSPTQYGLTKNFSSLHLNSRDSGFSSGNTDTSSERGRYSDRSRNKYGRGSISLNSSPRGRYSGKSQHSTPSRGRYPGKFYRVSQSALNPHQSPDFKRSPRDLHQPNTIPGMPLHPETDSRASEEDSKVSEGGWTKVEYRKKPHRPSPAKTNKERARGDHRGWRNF
Sequence of Serine/threonine-protein kinase SIK1 (P57059 whole entry, the tested form may be a part): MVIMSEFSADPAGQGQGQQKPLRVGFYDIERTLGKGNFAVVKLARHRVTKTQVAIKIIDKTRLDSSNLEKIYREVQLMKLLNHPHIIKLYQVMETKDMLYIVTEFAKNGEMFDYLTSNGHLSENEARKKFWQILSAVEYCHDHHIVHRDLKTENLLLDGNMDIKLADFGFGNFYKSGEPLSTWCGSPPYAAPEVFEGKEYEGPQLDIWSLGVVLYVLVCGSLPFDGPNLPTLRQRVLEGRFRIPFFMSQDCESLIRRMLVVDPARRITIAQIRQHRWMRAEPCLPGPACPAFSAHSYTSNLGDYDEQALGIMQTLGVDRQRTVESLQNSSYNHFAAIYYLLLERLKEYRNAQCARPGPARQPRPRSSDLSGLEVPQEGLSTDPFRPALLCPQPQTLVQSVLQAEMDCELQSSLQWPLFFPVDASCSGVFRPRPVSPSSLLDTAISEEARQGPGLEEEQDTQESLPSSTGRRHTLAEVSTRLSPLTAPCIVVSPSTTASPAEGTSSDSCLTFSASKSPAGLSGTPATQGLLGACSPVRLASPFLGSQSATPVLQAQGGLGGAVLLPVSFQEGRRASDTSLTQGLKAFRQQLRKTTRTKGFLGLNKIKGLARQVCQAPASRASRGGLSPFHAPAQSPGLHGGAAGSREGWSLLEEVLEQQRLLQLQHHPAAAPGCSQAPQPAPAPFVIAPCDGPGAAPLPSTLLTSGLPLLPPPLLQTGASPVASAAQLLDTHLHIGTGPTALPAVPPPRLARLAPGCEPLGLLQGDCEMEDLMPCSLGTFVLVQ

Usually ΔTm stands for the shift of the melting midpoint relative to a reference. In the case of `CNc1ncc2cc(-c3cc(Br)ccc3Br)c(=O)n(CCCCN)c2n1`, the ΔTm in series [1] turned out to be 1.6 °C; in series [2], 1.4 °C; in series [3], 1.9 °C; in [4], 1.5 °C; in [5] it was 0.7 °C.
Turning to `CNc1ncc2cc(-c3cc(C(F)(F)F)ccc3Cl)c(=O)n(CCCCN)c2n1`, the ΔTm amounted to 0.9 °C in series [1]; 0.8 °C in series [2]; 0.2 °C in series [3]; 0.4 °C in [4]; 0.2 °C in series [5].
`CNc1ncc2cc(-c3ccc(-c4ncccc4F)cc3Cl)c(=O)n(C[C@H]3OC[C@H](N)CO3)c2n1`: the ΔTm in series [1] worked out at 1.8 °C; in [3] it was 3.5 °C; in series [4] it was 2.7 °C; in [5] it was 5.2 °C. For the same compound, the inhibition entry in [6] was “Dose-Dependent Effect”. For the same compound, the inhibition entry in series [7], in [8] and in [12] was “Active” each time. Moreover, the Activity in the series on SK-OV-3 [9] is on record as 70%; with SK-OV-3 [10], 13%; in the series with SK-OV-3 [11] it was 7%; in the series with HCT-116 [13], “Non-Toxic”; with HCT-116 [14] it was “Toxic”.
In the case of `CNc1ncc2cc(-c3cc(Cl)ccc3Br)c(=O)n(CCCCN)c2n1`, the ΔTm in series [1] was 1.5 °C; in [2], 1.4 °C; in [3], 2 °C; in series [4], 1.8 °C; in [5], 0.6 °C.
For `CNc1ncc2cc(-c3cc(Br)ccc3Cl)c(=O)n(C[C@H]3OC[C@H](N)CO3)c2n1`, in that order: 1.7 °C, 1.5 °C, 0.8 °C, 0.6 °C and 0.6 °C.
For `CNc1ncc2cc(-c3cc(F)c(-c4cccc(C)n4)cc3F)c(=O)n(CCCCN)c2n1`, in that order: 2.8 °C, 5.2 °C, 9.7 °C, 7.6 °C and 3.6 °C.
As for `CN[C@@H]1C[C@H]2O[C@@](C)([C@@H]1OC)n1c3ccccc3c3c4c(c5c6ccccc6n2c5c31)C(=O)NC4`, the ΔTm in series [5] was found to be 6.7 °C.
On to `CNc1ncc2cc(-c3ccccc3Cl)c(=O)n(CCCCN)c2n1`, for which the ΔTm stood at 1.9 °C in series [1]; 2.2 °C in [2]; 3.8 °C in [3]; 2.6 °C in series [4]; 1.1 °C in [5]. Besides, the inhibition result in series [6] was “Dose-Dependent Effect”. Also, the inhibition result in series [7], in series [8] and in series [12] was “Active” throughout. Moreover, the Activity in the series on SK-OV-3 [9] is given as 58%; with SK-OV-3 [11], 6%; in the series with HCT-116 [15], “Toxic”; in the series on HCT-116 [14], “Toxic”.
A word on the IC50: it is the concentration that inhibits the measured activity by half. With `CNc1ncc2cc(-c3ccc(-c4cccc(C)n4)cc3Cl)c(=O)n(C[C@H]3OC[C@H](N)CO3)c2n1`, the ΔTm in [1] is 4.2 °C; in series [3], 8.5 °C. Further, the IC50 in [16] amounted to 33 nM.
`CCCS(=O)(=O)Nc1ccc(F)c(C(=O)c2c[nH]c3ncc(-c4ccc(Cl)cc4)cc23)c1F` [VEMURAFENIB]: the IC50 in series [17] stood at 4 nM.
Turning to `CNc1ncc2cc(-c3cc(Cl)ccc3Cl)c(=O)n(CCCCN)c2n1`, the ΔTm in [1] turned out to be 1.6 °C; in series [2], 1.4 °C; in series [3], 1.9 °C; in series [4], 2 °C; in series [5] it was 0.7 °C.
Consider `CNc1ncc2cc(-c3cc(Br)ccc3Cl)c(=O)n(CCCCN)c2n1`, for which the shift in melting temperature (ΔTm) is 1.9 °C in [1]; 2.5 °C in series [2]; 2.7 °C in series [3]; 2.2 °C in series [4]; 0 °C in series [5].
